Key:
Type in all cases: in vivo, Cydia pomonella
[1] = tested on: codling moth; test: Inherent attractancy field test of HPV blends in baited sticky traps in walnut orchard; settings: walnut orchard, blends 10 mg/white septa, ethyl (2E,4Z)-2,4-decadienoate 5 mg
Description: The blends listed in Table 2 were then field tested in walnut orchards for their attractancy to male and female codling moths, and also for enhancement with synthetic codling moth pheromone and other additives identified above. Their total capture (both males and females), and their individual male and female capture were determined and results obtained, were compared to insect capture obtained with purified individual ester, compound #25 namely ethyl (2E,4Z)-2,4-decadienoate, and to the codling moth male sex pheromone compound #26 in Table 3.
Individual blends containing representative aldehyde, alcohol, ester, monoterpene or sesquiterpene blends were provided in the traps in 10 mg/white septa.
Individual host-plant volatile (HPV) blends identified by the #1-23 in Table 3 were tested for codling moth attractancy in a walnut orchard, and the results were compared to the isolated purified ethyl (2E,4Z)-2,4-decadienoate (#25), to pheromone (#26) and to solvent controls (#24).
Twenty-five HPV blends and eight individual compounds were field tested. One synthetic blend, “ester blend #10,” elicited excellent codling moth attraction. In field tests, the other tested blends (see Table 3) and compounds captured no moths over a three month period, except for an “apple-skin surface extract” (Golden Delicious, ether solvent) (Σ=3 codling moth captured, 1♂: 2♀♀) and the individual compound, (E,E)-α-farnesene (Σ=1♂ codling moth captured). The field tests are presented in Table 3 and show attraction specificity for HPV ester blend #10.
Sticky traps (ICP and IIB traps, Trécé, Inc. Salinas, Calif.) were baited with either extracts, blends of HPVs, or individual HPVs (>95% purity) that evaporated from impregnated rubber septa. HPV blends, or individual HPV compounds, were diluted in hexane and pipetted onto rubber septa at approximate doses of 10 mg/septum. A single treatment septum was placed in each sticky wing-trap, and hung approximately six meters high in the outer walnut canopy. Trap liners and treatment HPV septa were replaced every 10-14 days and pheromone septa every month and tests were conducted throughout two summers.
A replicated series of different HPV treatment traps, control “blank” (unbaited) trap, and a commercial pheromone-baited trap (Trécé, Inc.) were distributed 5 trees apart throughout two distant Hartley walnut orchards and validated in 12 walnut orchards. The orchards were distinct, with one using three summer insecticide sprays and the other had no spraying. Thus, these test orchards had low vs. moderate relative populations of codling moths. Significant effects on the gender of codling moths captured were judged by paired tests, either T-test or a nonparametric test.

[2] = tested on: codling moth; test: Trap capture with proportional mixes of ethyl 2,4-decadienoate isomers; settings: 1 mg dose/gray septum
Description: Additionally, studies were performed to determine the attraction of codling moth to proportional mixes of (2E,4Z) and (2E,4E) isomers of ethyl 2,4-decadienoate and highly purified samples of each. Traps were baited with 1 mg dose/gray septum.

[3] = tested on: codling moth; test: Sticky traps baited with the single compound or pheromone
Excerpt: FIG. 5 illustrates mean attraction of female and male codling moths to sticky traps baited with a single host plant volatile, ethyl (2E,4Z)-2,4-decadienoate. The attraction was followed over a two month period.

[4] = tested on: first-instar or neonate larval worms of the codling moth; test: Dual-choice larval orientation bioassay in petri dishes
Description: Behavioral orientation responses in the laboratory of first-instar or neonate larval worms of the codling moth are seen in Table 16. Data shown in Table 16 represents means of to 50 bioassay replications using five neonates per experiment conducted in small areas (10 cm diameter petri dishes). Experiments were dual-choice tests, where the released neonate larvae crawled and made perceptual choices between two small (one cm diameter) filter paper discs, with one disk treated with 1 ug or 10 ug of ethyl (2E,4Z) decadienoate and the other disc treated with an equivalent volume of solvent (methylene chloride).

[5] = tested on: codling moth; test: Field study of individual alcohols, aldehydes and esters; settings: individual compounds typically of purity 90-98%
Excerpt: Attractive activity of these compounds for male and female codling moth was compared to purified ethyl (2E,4Z)-2,4-decadienoate.
When the cumulative evaluation of all studied compounds and/or blends containing aldehyde, alcohol, ester and terpene compounds was made, the following results clearly confirmed the findings seen in Table 3.

[6] = tested on: codling moths; test: Effect of sample purity on trap capture
Description: Additional purification procedures were conducted to show the differences and superiority of purified pear and apple volatiles over commercially available products. For that purpose, extracts were purified from commercially available compounds, typically available in only about 80-85% purity, to a purity between 90-100%, preferably over 98% purity. As the purity of the sample of ethyl (2E,4Z)-2,4-decadienoate increased so also did its attractancy to codling moths. For example, the mean captures (±SEM) were 4.5 (±2.0) for an 86% pure sample, 6.5 (±4.4) for a 93.6% pure sample and 9.3 (±3.2) for 98.8% pure sample.

[7] = tested on: codling moth; test: Trap capture in a pheromone mating disruption treated walnut orchard; settings: 10 mg/lure, FIG. 6
Description: FIG. 6 illustrates total capture of codling moth males and females, in a mating disruption treated orchard by using pheromone lures (-▴-) and by using lures containing ethyl (2E,4Z)-2,4-decadienoate (-♦-) (10 mg/lure)

[8] = tested on: codling moth; test: Low loading dose response trap study (FIG. 13); settings: loading doses 0.1 μg to 10 mg in grey septa
Description: In this study, both males (-Δ-) and females (-□-) responded to a threshold dose of less than 10 μg of the ester attractant, while at progressively higher loading rates females were more responsive than males.

[9] = Table 15, sticky trap, 3 traps, 43 trap checks (pheromone: 1 trap, 19 trap checks)
[10] = five neonates per experiment, disc with 1 ug or 10 ug vs solvent disc

Structure (SMILES): CCCCC/C=C\C=C\C(=O)OCC [Ethyl (2E,4Z)-2,4-Decadienoate, ethyl (2E,4Z)-2,4-decadienoate]
- FEMALE CM Captured with HPV; ♀♀/trap night ± SEM [1]: 2.04 ± 0.85 ♀♀/trap night
- MALE CM Captured with HPV; ♂♂/trap/night ± SEM [1]: 1.42 ± 0.59 ♂♂/trap/night
- Total CM Captured with HPV: (CM/trap/night ± SEM) [1]: 3.46 ± 1.44 CM/trap/night
- Total CM Captured with HPV: (CM/trap/night ± SEM) ([1]; listed as #25): 3.46 CM/trap/night
- Female CM Captured ♀♀/trap/night ± SEM [2]: 0.76 ± 0.10 ♀♀/trap/night
- MALE CM Captured: ♂♂/trap/night ± SEM [2]: 0.62 ± 0.29 ♂♂/trap/night
- Total CM Captured: CM/trap ± SEM [2]: 1.38 ± 0.37 CM/trap
- Female Capture: Sum: ([3]; Table 15, sticky trap): 76.4 Moths/Trap/Night
- Male Capture: Sum: ([3]; Table 15, sticky trap): 24.9 Moths/Trap/Night
- Female Capture: Mean ± SEM [3, 9]: 1.78 ± 0.45 Moths/Trap/Night
- Male Capture: Mean ± SEM [3, 9]: 0.58 ± 0.12 Moths/Trap/Night
- attractiveness relative to pheromone ([3]; sticky traps, two month period): approximately 48%
- Arrestment; average time (sec) on or under disc: ([4]; 1 ug dose of attractant): 19.7 ± 5.6 s
- Arrestment; average time (sec) on or under disc: ([4]; 10 ug dose of attractant): 33.0 ± 10.7 s
- Attraction; average number of neonates contacting disc: x ± SEM [4, 10]: 4.5 ± 0.9
- Latency: average time (sec) to first arrive at disc: x ± SEM [4, 10]: 74.5 ± 16.1 s
- attractancy to male and female codling moth (in words) [5]: most active
- mean captures (±SEM) ([6]; 86% pure sample): 4.5 (±2.0)
- mean captures (±SEM) ([6]; 93.6% pure sample): 6.5 (±4.4)
- mean captures (±SEM) ([6]; 98.8% pure sample): 9.3 (±3.2)
- number of codling moths captured relative to lures with pheromone only [7]: more than double
- threshold dose to which males and females responded [8]: less than 10 μg
